In patent US20050232924A1, “Antibodies and/or conjugates thereof which bind to the amino terminal fragment of urokinase, compositions and uses thereof” (Attenuon LLC, priority 2003, published 2005):

Experiments:
MDA-MB-231 cells [1] = experiment: MTT proliferation assay; assay type: cell-based, human; details: 10 μM; FIG. 13A
Description: The ability of ATN-291-Dox to inhibit proliferation of MDA-MB-231 cells was tested in an MTT assay. […] A dose titration was performed with the ATN-291-Dox conjugate. As shown in FIG. 10B the conjugate inhibited proliferation with an IC-50 of ˜1.6 μM.

MDA-MB-231 cells [2] = experiment: Distribution of Dox by fluorescence microscopy; assay type: cell-based, human; details: 1.6 μM, 24 h; FIG. 14
Description: To further characterize the ATN-291-Dox conjugates the distribution of Dox was monitored by fluorescence microscopy. MDA-MB-231 cells grown on glass chamber slides were incubated with either 1.6 μM Dox or 1.6 μM ATN-291-Dox for 24 h under the same conditions used for the MTT assay. Following incubation, the supernatant was removed and the cells washed extensively with PBS. Cells were fixed in paraformaldehyde, mounted and observed by fluorescence microscopy.

COc1cccc2c1C(=O)c1c(O)c3c(c(O)c1C2=O)C[C@@](O)(C(=O)CO)C[C@@H]3O[C@H]1C[C@H](N)[C@H](O)[C@H](C)O1 [Dox, doxorubicin]
effect on cell proliferation (MDA-MB-231 cells [1]): significantly inhibited proliferation
cellular localization of Dox fluorescence (MDA-MB-231 cells [2]): primarily localized to the nucleus of treated cells
